This is an account of results in patent US11319315B2, “Cyclohexyl acid triazole azoles as LPA antagonists” (BRISTOL-MYERS SQUIBB COMPANY, priority 2017, dated 2022).

pIC50: −log10 of the molar value. Structures can show the parent of a compound that is named as a salt.

The target of the first experiment is T1, human LPA1 (Homo sapiens, UniProt Q92633).
T1 construct: expressed in transfected cells; host or cells: Chinese hamster ovary (CHO) cells
T1 sequence (Q92633 whole entry): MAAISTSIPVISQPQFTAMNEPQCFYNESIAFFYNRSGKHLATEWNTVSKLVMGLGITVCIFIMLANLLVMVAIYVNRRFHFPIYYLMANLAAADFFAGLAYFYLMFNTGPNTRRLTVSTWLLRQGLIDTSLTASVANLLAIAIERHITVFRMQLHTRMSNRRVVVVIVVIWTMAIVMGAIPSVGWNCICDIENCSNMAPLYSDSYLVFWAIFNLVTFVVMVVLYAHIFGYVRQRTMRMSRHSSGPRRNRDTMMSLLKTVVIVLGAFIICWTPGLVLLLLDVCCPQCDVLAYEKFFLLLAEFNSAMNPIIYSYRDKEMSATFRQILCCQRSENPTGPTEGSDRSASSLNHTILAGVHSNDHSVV
The experiment in a line: LPA1 functional antagonist assay (LPA-induced calcium flux in CHO cells overexpressing human LPA1). As to conditions: inhibition of calcium flux induced by 10 nM LPA, CHO cells overexpressing human LPA1; read-out: hLPA1 IC50. The experiment is classed as cell-based. The method in brief:
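Calcium flux was triggered by 10 nM LPA after 20 min room-temperature compound pre-incubation (final 0.08 nM to 5 μM, 0.5% DMSO) in human LPA1-overexpressing CHO cells carrying calcium dye. Buffer: HBSS with Ca/Mg, 20 mM HEPES, 0.1% fatty-acid-free BSA; IC50s from 4-parameter logistic fits.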
For orientation: Calcium flux is commonly read through the fluorescence of an indicator in the cells.
In general, pIC50 refers to the IC50 on a negative log10 scale, so that one unit is a factor of ten. As to `Cc1nc(-c2nnn(C)c2COc2ncn(CC3CC3)n2)ccc1O[C@H]1CCC[C@H](C(=O)O)C1` [Example 140], the pIC50 was 7.24. Still for that read-out and setting: the value for `CCCc1noc(Cc2c(-c3ccc(O[C@H]4CCC[C@H](C(=O)O)C4)c(C)n3)nnn2C)n1` [Example 247, (1S,3S)-3-((2-methyl-6-(1-methyl-5-((3-propyl-1,2,4-oxadiazol-5-yl)methyl)-1H-1,2,3-triazol-4-yl)pyridin-3-yl)oxy)cyclohexane-1-carboxylic acid] was 7.09; that for `CCCCn1cnc(OCc2c(-c3ccc(O[C@H]4CCC[C@H](C(=O)O)C4)c(C)n3)nnn2C)n1` [Example 141] was 7.15; that for `CCCCn1cnc(NCc2c(-c3ccc(O[C@H]4CCC[C@H](C(=O)O)C4)c(C)n3)nnn2C)n1` [Example 150] was 7.17. The same measure, in the same setting: the value for `Cc1nc(-c2nnn(C)c2Cn2nnnc2CCC(C)C)ccc1O[C@H]1CCC[C@H](C(=O)O)C1` [Example 309, (1S,3S)-3-{[2-methyl-6-(1-methyl-5-{[5-(3-methylbutyl)-1H-1,2,3,4-tetrazol-1-yl]methyl}-1H-1,2,3-triazol-4-yl)pyridin-3-yl]oxy}cyclohexane-1-carboxylic acid] was 6.72; that for `Cc1nc(-c2nnn(C)c2CNc2noc(CC(C)C)n2)ccc1O[C@H]1CCC[C@H](C(=O)O)C1` [Example 71] was 7.48. On to `CCCCc1noc(NCc2c(-c3ccc(O[C@H]4CCC[C@H](C(=O)O)C4)c(C)n3)nnn2C)n1` [Example 43, (1S,3S)-3-((6-(5-(((3-Butyl-1,2,4-oxadiazol-5-yl)amino)methyl)-1-methyl-1H-1,2,3-triazol-4-yl)-2-methylpyridin-3-yl)oxy)cyclohexane-1-carboxylic acid, bis TFA salt], for which the pIC50 is 7.12. On the same count and under the same terms, the value for `Cc1nc(-c2nnn(C)c2CNc2ncn(CC(C)C)n2)ccc1O[C@H]1CCC[C@H](C(=O)O)C1` [Example 25, (1 S,3 S)-3-((6-(5-(((1-isobutyl-1H-1,2,4-triazol-3-yl)amino)methyl)-1-methyl-1H-1,2,3-triazol-4-yl)-2-methylpyridin-3-yl)oxy)cyclohexane-1-carboxylic acid] was 6.90; that for `C=C1CC(c2nc(NCc3c(-c4ccc(O[C@H]5CCC[C@H](C(=O)O)C5)c(C)n4)nnn3C)no2)C1` [Example 203] was 7.94; that for `Cc1nc(-c2nnn(C)c2CNc2cnn(-c3ccccc3)n2)ccc1O[C@H]1CCC[C@H](C(=O)O)C1` [Example 32] was 8.00.

Consider `Cc1nc(-c2nnn(C)c2Cn2nnc(S(C)(=O)=O)n2)ccc1O[C@H]1CCC[C@H](C(=O)O)C1` [Example 343, (1S,3S)-3-[(6-{5-[(5-methane-sulfonyl-2H-1,2,3,4-tetrazol-2-yl)methyl]-1-methyl-1H-1,2,3-triazol-4-yl}-2-methylpyridin-3-yl)oxy]cyclohexane-1-carboxylic acid], for which the pIC50 was 5.96. The same measure, in the same setting: the value for `Cc1nc(-c2nnn(C)c2Cn2nnc(-c3cccc(F)c3)n2)ccc1O[C@H]1CCC[C@H](C(=O)O)C1` [Example 320, (1S,3S)-3-((6-(5-((5-(3-fluoro-phenyl)-2H-tetrazol-2-yl)methyl)-1-methyl-1H-1,2,3-triazol-4-yl)-2-methylpyridin-3-yl)oxy)cyclo-hexane-1-carboxylic acid] was 7.24. The same measure, in the same setting: the value for `CCC(C)Cc1nc(NCc2c(-c3ccc(O[C@H]4CCC[C@H](C(=O)O)C4)c(C)n3)nnn2C)no1` (some centres unmarked) [Example 170] was 7.74. Take `Cc1nc(-c2nnn(C)c2Cn2nnnc2CCC2CC2)ccc1O[C@H]1CCC[C@H](C(=O)O)C1` [Example 357, (1S,3S)-3-{[6-(5-{[5-(2-cyclopro-pylethyl)-1H-1,2,3,4-tetrazol-1-yl]methyl}-1-methyl-1H-1,2,3-triazol-4-yl)-2-methylpyridin-3-yl]oxy}cyclohexane-1-carboxylic acid]: the pIC50 was 6.48.

Consider `Cc1nc(-c2nnn(C)c2Cn2cc(COC(C)(C)C)nn2)ccc1O[C@H]1CCC[C@H](C(=O)O)C1` [Example 88], for which the pIC50 was 5.53. On the same count and under the same terms, the value for `CCCCc1cn(Cc2c(-c3ccc(O[C@H]4CCC[C@H](C(=O)O)C4)c(CC)n3)nnn2C)nn1` [Example 96] was 8.05; that for `Cc1nc(-c2nnn(C)c2CNc2cnn(CC(C)C)n2)ccc1O[C@H]1CCC[C@H](C(=O)O)C1` [Example 22, (1 S,3 S)-3-((6-(5-(((2-isobutyl-2H-1,2,3-triazol-4-yl)amino)methyl)-1-methyl-1H-1,2,3-triazol-4-yl)-2-methylpyridin-3-yl)oxy)cyclohexane-1-carboxylic acid] was 7.38; that for `Cc1nc(-c2nnn(C)c2Cn2nnc(-c3ccccc3)n2)ccc1O[C@H]1CCC[C@H](C(=O)O)C1` [Example 107] was 7.38.

Consider `Cc1nc(-c2nnn(C)c2Cn2nnc(CC(C)C)n2)ccc1O[C@H]1CCC[C@H](C(=O)O)C1` [Example 327, (1S,3S)-3-((6-(5-((5-isobutyl-2H-tetrazol-2-yl)methyl)-1-methyl-1H-1,2,3-triazol-4-yl)-2-methylpyridin-3-yl)oxy)cyclohexane-1-carboxylic acid], for which the pIC50 was 7.55. Same read-out and setting: the value for `Cc1nc(-c2nnn(C)c2CNc2noc(CCC3CC3)n2)ccc1O[C@H]1CCC[C@H](C(=O)O)C1` [Example 165] was 8.22. For `Cc1nc(-c2nnn(C)c2COc2nnn(CC3CC3)n2)ccc1O[C@H]1CCC[C@H](C(=O)O)C1` [Example 143], the pIC50 was 7.62. Consider `Cc1nc(-c2nnn(C)c2CNc2nsc(-c3ccccc3)n2)ccc1O[C@H]1CCC[C@H](C(=O)O)C1` [Example 6], for which the pIC50 was 7.74. On the same count and under the same terms, in the case of `Cc1nc(-c2nnn(C)c2Cn2nnc(C(C)C)n2)ccc1O[C@H]1CCC[C@H](C(=O)O)C1` [Example 299, (1S,3S)-3-{[2-methyl-6-(1-methyl-5-{[5-(propan-2-yl)-2H-1,2,3,4-tetrazol-2-yl]methyl}-1H-1,2,3-triazol-4-yl)pyridin-3-yl]oxy}cyclo-hexane-1-carboxylic acid] it was 7.00; in that of `Cn1nnc(-c2ccc(O[C@H]3CCC[C@H](C(=O)O)C3)cn2)c1Cn1nnc(C2CCCC2)n1` [Example 259, (1S,3S)-3-((6-(5-((5-cyclopentyl-2H-tetrazol-2-yl)methyl)-1-methyl-1H-1,2,3-triazol-4-yl)pyridin-3-yl)oxy)cyclohexane-1-carboxylic acid], 7.51. Same read-out and setting: the value for `CCc1cnc(NCc2c(-c3ccc(O[C@H]4CCC[C@H](C(=O)O)C4)c(C)n3)nnn2C)o1` [Example 19] was 6.97; that for `Cc1nc(-c2nnn(C)c2COc2ncn(CC(C)C)n2)ccc1O[C@H]1CCC[C@H](C(=O)O)C1` [Example 135, (1 S,3 S)-3-((6-(5-(((1-Isobutyl-1H-1,2,4-triazol-3-yl)oxy)methyl)-1-methyl-1H-1,2,3-triazol-4-yl)-2-methylpyridin-3-yl)oxy)cyclohexane-1-carboxylic acid] was 7.49.

As for `Cc1nc(-c2nnn(C)c2Cn2ncc(-c3ccccc3)n2)ccc1O[C@H]1CCC[C@H](C(=O)O)C1` [Example 273, (1 S,3S)-3-((2-methyl-6-(1-methyl-5-((4-phenyl-2H-1,2,3-triazol-2-yl)methyl)-1H-1,2,3-triazol-4-yl)pyridin-3-yl)oxy)cyclohexane-1-carboxylic acid], the pIC50 was 7.24.

Take `CCCOC(C)c1nc(NCc2c(-c3ccc(O[C@H]4CCC[C@H](C(=O)O)C4)c(C)n3)nnn2C)no1` (mixture of isomers) [Example 218, (1S,3S)-3-((2-methyl-6-(1-methyl-5-(((5-(1-propoxyethyl)-1,2,4-oxadiazol-3-yl)amino)methyl)-1H-1,2,3-triazol-4-yl)pyridin-3-yl)oxy)cyclohexane-1-carboxylic acid]: the pIC50 was 7.46.

Take `Cn1nnc(-c2ccc(O[C@H]3CCC[C@H](C(=O)O)C3)cn2)c1Cn1nnnc1C1CCCC1` [Example 258, (1S,3S)-3-((6-(5-((5-cyclopentyl-1H-tetrazol-1-yl)methyl)-1-methyl-1H-1,2,3-triazol-4-yl)pyridin-3-yl)oxy)cyclohexane-1-carboxylic acid]: the pIC50 was 6.36.

For the molecule `Cc1nc(-c2nnn(C)c2CNc2nnc(CC(C)C)o2)ccc1O[C@H]1CCC[C@H](C(=O)O)C1` [Example 54], the pIC50 was 6.72. `Cc1nc(-c2nnn(C)c2Cn2nnc(N3CCCC3)n2)ccc1O[C@H]1CCC[C@H](C(=O)O)C1` [Example 312, (1S,3S)-3-{[2-methyl-6-(1-methyl-5-{[5-(pyrrolidin-1-yl)-2H-1,2,3,4-tetrazol-2-yl]methyl}-1H-1,2,3-triazol-4-yl)pyridin-3-yl]oxy}cyclohexane-1-carboxylic acid]: the pIC50 was 6.63.

In the case of `Cc1nc(-c2nnn(C)c2Cn2nnc(CC3CCC3)n2)ccc1O[C@H]1CCC[C@H](C(=O)O)C1` [Example 295, (1S,3S)-3-{[6-(5-{[5-(cyclobutyl-methyl)-2H-1,2,3,4-tetrazol-2-yl]methyl}-1-methyl-1H-1,2,3-triazol-4-yl)-2-methylpyridin-3-yl]oxy}cyclohexane-1-carboxylic acid], the pIC50 is 6.99.

On to `Cc1nc(-c2nnn(C)c2CNc2nc3c(s2)CCCC3)ccc1O[C@H]1CCC[C@H](C(=O)O)C1` [Example 17], for which the pIC50 was 5.92.

Staying with this experiment, now noted: read-out: hLPA1 IC50.
For the molecule `COCCCOc1nnn(Cc2c(-c3ccc(O[C@H]4CCC[C@H](C(=O)O)C4)c(C)n3)nnn2C)n1` [Example 404, (1S,3S)-3-{[6-(5-{[5-(3-methoxy-propoxy)-2H-1,2,3,4-tetrazol-2-yl]methyl}-1-methyl-1H-1,2,3-triazol-4-yl)-2-methylpyridin-3-yl]oxy}cyclohexane-1-carboxylic acid], the pIC50 was 6.44. For `CCCn1nnc(NCc2c(-c3ccc(O[C@H]4CCC[C@H](C(=O)O)C4)c(C)n3)nnn2C)n1` [Example 387, (1S,3S)-3-((2-methyl-6-(1-methyl-5-(((2-propyl-2H-tetrazol-5-yl)amino)methyl)-1H-1,2,3-triazol-4-yl)pyridin-3-yl)oxy)cyclohexane-1-carboxylic acid], the pIC50 is 6.55.
